The results in this text go back to patent US9624239B2, “Protein kinase inhibitors” (Pharmascience Inc., priority 2011, dated 2017).

In experiment [1] the test system is mouse splenocytes. Kind of experiment: Splenic cell proliferation assay (anti-IgM stimulated B cell proliferation, Cell Titer-Glo). Format: cell-based. Particulars: Splenocyte; CD1 mouse splenocytes, 1 h pre-treatment, 2.5 ug/ml anti-IgM F(ab')2 for 72 h; read-out: EC50 (nM), Inhibition of splenic cell proliferation. The protocol:
Splenic Cell Proliferation Assay
Splenocytes were obtained from 6 week old male CD1 mice (Charles River Laboratories Inc.). Mouse spleens were manually disrupted in PBS and filtered using a 70 μm cell strainer followed by ammonium chloride red blood cell lysis. Cells were washed, resuspended in Splenocyte Medium (HyClone RPMI supplemented with 10% heat-inactivated FBS, 0.5× non-essential amino acids, 10 mM HEPES, 50 uM beta mercaptoethanol) and incubated at 37° C., 5% CO2 for 2 h to remove adherent cells. Suspension cells were seeded in 96 well plates at 50,000 cells per well and incubated at 37° C., 5% CO2 for 1 h. Splenocytes were pre-treated in triplicate with 10,000 nM curves of Formula 1 compounds for 1 h, followed by stimulation of B cell proliferation with 2.5 ug/ml anti-IgM F(ab′)2 (Jackson ImmunoResearch) for 72 h. Cell proliferation was measured by Cell Titer-Glo Luminescent Assay (Promega). EC50 values (50% proliferation in the presence of compound as compared to vehicle treated controls) were calculated from dose response compound curves using GraphPad Prism Software.
EC50 values are reported in Table 4: • a—Less than 100 nM; b—less than 1000 nM; c—more than 1000 nM

For experiment [2], the target named is T1, histidine tagged recombinant human full-length Bruton Agammaglobulinemia Tyrosine Kinase (Btk) (Homo sapiens, UniProt Q06187).
T1 construct: recombinant human full-length Bruton Agammaglobulinemia Tyrosine Kinase (Btk); histidine tag
The experiment is described as follows: Btk kinase inhibition assay (fluorescence polarization, KinEASE FP Fluorescein Green). The conditions noted are these: 10 μM ATP, 250 μM substrate, 60 minutes, room temperature; Ki from IC50 by Cheng-Prusoff; read-out: ki50 (nM), Inhibition of Btk. Format: biochemical. On the procedure: (§1) Kinase Binding Btk and Lck Kinase Inhibition Assay
(§2) Fluorescence polarization-based kinase assays were performed in 384 well-plate format using histidine tagged recombinant human full-length Bruton Agammaglobulinemia Tyrosine Kinase (Btk) or histidine tagged recombinant Human Lymphocyte-Specific Protein Tyrosine Kinase (Lck) and a modified protocol of the KinEASE™ FP Fluorescein Green Assay supplied from Millipore. Kinase reaction were performed at room temperature for 60 minutes in presence of 250 μM substrate, 10 μM ATP and variable test article concentrations. The reaction was stopped with EDTA/kinease detection reagents and the polarization measured on a Tecan 500 instrument. From the dose-response curve obtained, the IC50 was calculated using Graph Pad Prisms® using a non-linear fit curve. The Km for ATP on each enzyme was experimentally determined and the Ki values calculated using the Cheng-Prusoff equation (see: Cheng Y, Prusoff W H. (1973) Relationship between the inhibition constant (K1) and the concentration of inhibitor which causes 50 percent inhibition (I50) of an enzymatic reaction”. Biochem Pharmacol 22 (23): 3099-108).
(§3) ki values are reported in Tables 2 and 3: • a—Less than 100 nM; b—less than 1000 nM; c—more than 1000 nM
Background: Fluorescence polarisation rises when a labelled molecule tumbles more slowly, as on binding a larger partner.

In experiment [3] the target is T2, histidine tagged recombinant Human Lymphocyte-Specific Protein Tyrosine Kinase (Lck) (Homo sapiens, UniProt P06239).
T2 construct: histidine tag
The experiment is described as follows: Lck kinase inhibition assay (fluorescence polarization, KinEASE FP Fluorescein Green). Format: biochemical. The conditions noted are these: 10 μM ATP, 250 μM substrate, 60 minutes, room temperature; Ki from IC50 by Cheng-Prusoff. The protocol:
as §1, §2, §3

A value given as a limit tells only on which side of the number the result lay.

T1 sequence (Q06187 whole entry): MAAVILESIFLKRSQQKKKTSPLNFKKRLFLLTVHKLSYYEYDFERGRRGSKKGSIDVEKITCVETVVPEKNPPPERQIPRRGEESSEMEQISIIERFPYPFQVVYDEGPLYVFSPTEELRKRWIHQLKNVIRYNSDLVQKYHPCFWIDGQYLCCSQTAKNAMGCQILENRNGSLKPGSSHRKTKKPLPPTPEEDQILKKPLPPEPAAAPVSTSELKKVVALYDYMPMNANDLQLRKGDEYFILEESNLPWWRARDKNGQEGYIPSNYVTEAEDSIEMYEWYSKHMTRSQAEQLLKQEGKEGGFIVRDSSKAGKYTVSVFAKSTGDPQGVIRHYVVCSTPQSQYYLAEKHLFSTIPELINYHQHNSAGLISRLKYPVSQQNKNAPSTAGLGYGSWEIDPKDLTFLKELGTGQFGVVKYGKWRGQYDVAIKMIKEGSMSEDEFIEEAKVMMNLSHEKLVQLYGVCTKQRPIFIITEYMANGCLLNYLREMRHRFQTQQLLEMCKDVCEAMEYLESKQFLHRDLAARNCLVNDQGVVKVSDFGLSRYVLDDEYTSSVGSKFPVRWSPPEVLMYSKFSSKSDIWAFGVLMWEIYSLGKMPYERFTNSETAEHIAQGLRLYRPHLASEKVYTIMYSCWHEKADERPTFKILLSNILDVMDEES
T2 sequence (P06239 whole entry): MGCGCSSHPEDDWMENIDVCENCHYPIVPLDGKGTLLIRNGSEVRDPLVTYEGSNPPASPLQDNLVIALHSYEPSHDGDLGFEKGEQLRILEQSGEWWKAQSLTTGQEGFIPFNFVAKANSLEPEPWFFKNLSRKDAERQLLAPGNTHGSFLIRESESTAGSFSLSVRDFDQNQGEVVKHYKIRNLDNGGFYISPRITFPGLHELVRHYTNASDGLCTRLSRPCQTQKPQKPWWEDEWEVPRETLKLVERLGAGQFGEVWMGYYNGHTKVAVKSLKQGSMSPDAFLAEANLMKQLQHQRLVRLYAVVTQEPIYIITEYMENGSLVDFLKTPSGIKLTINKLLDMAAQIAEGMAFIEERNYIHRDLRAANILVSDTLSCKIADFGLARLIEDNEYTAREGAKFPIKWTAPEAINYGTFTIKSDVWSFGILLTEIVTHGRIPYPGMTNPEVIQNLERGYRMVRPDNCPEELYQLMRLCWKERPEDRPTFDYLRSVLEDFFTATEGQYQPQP

Turning to `CCOc1cccc(Oc2ccc(-n3c4c(c5ncnc(N)c53)C(C)OC4)cc2)c1` (centres unmarked) [Compound 41], in experiment [1], the EC50 lay within 100 to 1000 nM. Further, the Ki in experiment [2] and in experiment [3] was under 100 nM each time.
`CC1OCc2c1c1ncnc(N)c1n2-c1ccc(Oc2ccccc2C(N)=O)cc1` (centres unmarked) [Compound 60]: in experiment [1], the EC50 is over 1000 nM. In addition, the Ki in experiment [2] was over 1000 nM; in experiment [3], under 1000 nM.
On to `CC1OCc2c1c1ncnc(N)c1n2-c1ccc(Oc2ccccc2)c(F)c1` (centres unmarked) [Compound 40], for which, in experiment [1], the EC50 was 100 to 1000 nM. Moreover, the values for the Ki in experiment [2] and in experiment [3] were under 1000 nM and under 100 nM, respectively.
In the case of `CC1OCc2c1c1ncnc(N)c1n2-c1ccc(Oc2cccc(OCCOc3ccc(Cl)cc3)c2)cc1` (centres unmarked) [Compound 50], the EC50 in experiment [1] is over 1000 nM. Besides, the Ki in experiment [2] and in experiment [3] was under 100 nM in each case.
For `Nc1ncnc2c3c(n(-c4ccc(Oc5ccccc5)cc4)c12)CCNC3` [Compound 8], the Ki in experiment [2] was over 1000 nM; in experiment [3], under 1000 nM.
Regarding `CC1OCc2c1c1ncnc(N)c1n2-c1ccc(Oc2cccc(OCC#N)c2)cc1` (centres unmarked) [Compound 46], in experiment [1], the EC50 was in the range of 100 to 1000 nM. Besides, the Ki in experiment [2] and in experiment [3] was under 100 nM each time.
Take `CC1OCc2c1c1ncnc(N)c1n2-c1ccc(Oc2cccc(F)c2)cc1` (centres unmarked) [Compound 35]: the EC50 in experiment [1] is over 1000 nM. In addition, the Ki in experiment [2] and in experiment [3] was under 1000 nM in each case.
In the case of `CC1OCc2c1c1ncnc(N)c1n2-c1ccc(Oc2ccccc2)c(Cl)c1` (centres unmarked) [Compound 39], in experiment [1], the EC50 was over 1000 nM. For the same compound, the figures for the Ki in experiment [2] and in experiment [3] were under 1000 nM and under 100 nM, respectively.
Take `Nc1ncnc2c3c(n(-c4ccc(Oc5ccccc5)cc4)c12)CCC3` [Compound 1]: the EC50 in experiment [1] was over 1000 nM. For the same compound, the Ki in experiment [2] is under 1000 nM; in experiment [3] it was under 100 nM.
On to `Nc1ncnc2c3c(n(-c4ccc(Oc5ccccc5)cc4)c12)COC3CCCO` (centres unmarked) [Compound 27], for which, in experiment [1], the EC50 is over 1000 nM. Also, the Ki in experiment [2] is under 1000 nM; in experiment [3] it was under 100 nM.
Regarding `CCC1OCc2c1c1ncnc(N)c1n2-c1ccc(Oc2ccccc2)cc1` (centres unmarked) [Compound 24], the EC50 in experiment [1] lay within 100 to 1000 nM. Besides, the Ki in experiment [2] is under 1000 nM; in experiment [3], under 100 nM.
With `Nc1ncnc2c3c(n(-c4ccc(Oc5ccccc5)cc4)c12)CN(S(=O)(=O)c1ccccc1)C3` [Compound 9], the Ki is over 1000 nM in experiment [2] and under 1000 nM in experiment [3].
As for `CC1OCc2c1c1ncnc(N)c1n2-c1ccc(Oc2cccc(Cl)c2)cc1` (centres unmarked) [Compound 31], the EC50 in experiment [1] was 100 to 1000 nM. In addition, the Ki in experiment [2] was under 1000 nM; in experiment [3], under 100 nM.
Turning to `CC1OCc2c1c1ncnc(N)c1n2-c1ccc(Oc2ccccc2C(F)(F)F)cc1` (centres unmarked) [Compound 32], the EC50 in experiment [1] was 100 to 1000 nM. In addition, the Ki in experiment [2] and in experiment [3] was under 1000 nM in each case.
For `CC1OCc2c1c1ncnc(N)c1n2-c1ccc(Oc2ccc(F)cc2)cc1` (centres unmarked) [Compound 42], the EC50 in experiment [1] was over 1000 nM. In addition, the Ki in experiment [2] was over 1000 nM; in experiment [3] it was under 1000 nM.
Turning to `CC1OCc2c1c1ncnc(N)c1n2-c1ccc(Oc2cccc(OCc3ccccc3)c2)cc1` (centres unmarked) [Compound 43], the EC50 in experiment [1] is 100 to 1000 nM. Moreover, the Ki in experiment [2] and in experiment [3] was under 100 nM throughout.
In the case of `COc1ccccc1Oc1ccc(-n2c3c(c4ncnc(N)c42)C(C)OC3)cc1` (centres unmarked) [Compound 28], the EC50 in experiment [1] is over 1000 nM. In addition, the Ki in experiment [2] and in experiment [3] was under 1000 nM each time.
Regarding `COc1cc(F)cc(Oc2ccc(-n3c4c(c5ncnc(N)c53)C(C)OC4)cc2)c1` (centres unmarked) [Compound 59], the EC50 in experiment [1] was in the range of 100 to 1000 nM. Moreover, the Ki in experiment [2] is under 1000 nM; in experiment [3] it was under 100 nM.
Regarding `Nc1ncnc2c3c(n(-c4ccc(Oc5ccccc5)cc4)c12)CN(C(=O)c1ccccc1)C3` [Compound 18], the Ki in experiment [2] is over 1000 nM; in experiment [3] it was under 1000 nM.
For `CC1OCc2c1c1ncnc(N)c1n2-c1ccc(Oc2ccccc2C#N)cc1` (centres unmarked) [Compound 58], the EC50 in experiment [1] is 100 to 1000 nM. Besides, the figures for the Ki in experiment [2] and in experiment [3] were under 1000 nM and under 100 nM, respectively.
For `CC1OCc2c1c1ncnc(N)c1n2-c1ccc(Oc2cccc(C(N)=O)c2)cc1` (centres unmarked) [Compound 38], the EC50 in experiment [1] is over 1000 nM. Also, the Ki in experiment [2] and in experiment [3] was over 1000 nM throughout.
Take `Nc1ncnc2c3c(n(-c4ccc(Oc5cccc(O)c5)cc4)c12)CCC3` [Compound 61]: in experiment [1], the EC50 is over 1000 nM. For the same compound, the Ki was over 1000 nM in experiment [2] and under 100 nM in experiment [3].
For the compound `CC1OCc2c1c1ncnc(N)c1n2-c1ccc(Oc2cccc(O)c2)cc1` (centres unmarked) [Compound 44], the EC50 in experiment [1] was over 1000 nM. The Ki in experiment [2] and in experiment [3] was under 100 nM in each case.
For `Nc1ncnc2c3c(n(-c4ccc(Oc5ccc(Br)cc5)cc4)c12)CCC3` [Compound 3], the EC50 in experiment [1] is over 1000 nM. The Ki in experiment [2] and in experiment [3] was under 1000 nM in each case.
As for `CC1OCc2c1c1ncnc(N)c1n2-c1ccc(Oc2cccc(OCc3cccnc3)c2)cc1` (centres unmarked) [Compound 53], in experiment [1], the EC50 was in the range of 100 to 1000 nM. In addition, the Ki in experiment [2] and in experiment [3] was under 100 nM throughout.
With `Nc1ncnc2c3c(n(-c4ccc(Cc5ccccc5)cc4)c12)CCC3` [Compound 22], the results for the Ki in experiment [2] and in experiment [3] were over 1000 nM and under 100 nM, respectively.
With `COc1cccc(Oc2ccc(-n3c4c(c5ncnc(N)c53)C(C)OC4)cc2)c1` (centres unmarked) [Compound 25], the EC50 in experiment [1] is 100 to 1000 nM. Moreover, the Ki in experiment [2] and in experiment [3] was under 100 nM throughout.
For `Nc1ncnc2c3c(n(-c4ccc(Oc5ccccc5)cc4)c12)CNC3` [Compound 7], the EC50 in experiment [1] was over 1000 nM. The Ki is over 1000 nM in experiment [2] and under 1000 nM in experiment [3].
Consider `Nc1ncnc2c3c(n(-c4ccc(Oc5ccc(F)cc5)cc4)c12)CCC3` [Compound 2], for which the EC50 in experiment [1] was over 1000 nM. Also, the Ki in experiment [2] and in experiment [3] was over 1000 nM throughout.
Turning to `CCN1CCc2c(c3ncnc(N)c3n2-c2ccc(Oc3ccccc3)cc2)C1` [Compound 15], the Ki was over 1000 nM in experiment [2] and under 100 nM in experiment [3].
For the compound `Nc1ncnc2c3c(n(-c4ccc(Oc5ccccc5)cc4)c12)COC3c1ccccc1` (centres unmarked) [Compound 30], the EC50 in experiment [1] is over 1000 nM. Also, the Ki in experiment [2] is under 100 nM; in experiment [3], under 1000 nM.
For the compound `Nc1ncnc2c3c(n(-c4ccc(Oc5ccccc5)cc4)c12)COC3CCCOc1ccccc1` (centres unmarked) [Compound 36], the EC50 in experiment [1] is over 1000 nM. Moreover, the figures for the Ki in experiment [2] and in experiment [3] were over 1000 nM and under 1000 nM, respectively.
As to `COc1cc(-n2c3c(c4ncnc(N)c42)CCC3)ccc1Oc1ccccc1` [Compound 23], the EC50 in experiment [1] was over 1000 nM. Moreover, the Ki in experiment [2] was under 1000 nM; in experiment [3] it was under 100 nM.
As for `CC1OCc2c1c1ncnc(N)c1n2-c1ccc(Oc2cccc(OCC3CCCCC3)c2)cc1` (centres unmarked) [Compound 56], the EC50 in experiment [1] is over 1000 nM. The Ki in experiment [2] and in experiment [3] was under 100 nM throughout.
As for `CC1OCc2c1c1ncnc(N)c1n2-c1ccc(Oc2cccc(OCc3ccncc3)c2)cc1` (centres unmarked) [Compound 54], the EC50 in experiment [1] was over 1000 nM. In addition, the Ki in experiment [2] and in experiment [3] was under 100 nM in each case.
For the compound `N#Cc1ccccc1COc1cccc(Oc2ccc(-n3c4c(c5ncnc(N)c53)CCC4)cc2)c1` [Compound 122], the EC50 in experiment [1] was in the range of 100 to 1000 nM. The Ki in experiment [2] was under 100 nM.
Turning to `CC1OCc2c1c1ncnc(N)c1n2-c1ccc(Oc2cccc(NC(=O)c3ccc(F)cc3)c2)cc1` (centres unmarked) [Compound 112], the EC50 in experiment [1] lay in the range of 100 to 1000 nM. The Ki in experiment [2] was under 100 nM.
